Measured values reported in paper PMC4684281, “Antitumor Effects and Mechanism of Novel Emodin Rhamnoside Derivatives against Human Cancer Cells In Vitro” (PLoS ONE, 2015).
In brackets after ≈: the same amount, converted by molar mass. Several values for one entry are separate records, joined by “and”; a condition that tells them apart may be missing. Equal entries are not always repeated. Where two headings read alike, the source gives them in different places.

Key:
[1] = tested on: HepG2 cells; test: Flow cytometry apoptosis analysis (Annexin V/7-AAD), HepG2; format: cell-based, Human; details: 48h (Fig 7 legend: 72h); for Early apoptosis: control 6.16±2.20; for Late apoptosis: control 10.71±1.42; for Living cell: control 79.87±1.84
Description: Flow cytometry analysis was determined using Annexin V-APC/7-AAD Apoptosis Detection Kit (BD Parmagen, U.S.A). HepG2 cells were inoculated at a density of 3×10^5/well in 6-well plates, and allowed to attach at 37°C for 24 hours. Afterwards, cells were treated with specific concentration EM-d-Rha, and cultured and harvested as described previously. Cells of each sample were resuspended in […] cold binding buffer before adding 2.5μL Annexin V-APC conjugate and 5μL 7-AAD solution. Then cells were incubated for 15 min on ice in the dark. Cell suspension was diluted to a final volume of 250μL with ice-cold, 1× Annexin V Binding Buffer. The assay was conducted by flow cytometry (BD FACSCalibur,USA). Scatter plots were generated using Cell Quest pro software (BD Biosciences, San Jose, CA). The experiment was repeated three times.

[2] = tested on: A549 cells; test: MTT cell viability assay, A549; format: cell-based, Human; details: for IC50: A549
Description: (§1) The viability of cancer cells was evaluated by MTT assay. Briefly, cells were inoculated in 96-well culture plates at the density of 1×10^4/well with complete medium containing 10% fetal calf serum in a final volume of 0.2 mL. Cells were incubated at 37°C for at least 24 hours to allow optimal attachment. When the cells reached 60% confluence, they were treated with Cisplatin, HCPT and emodin rhamnopyranosides derivatives in various concentrations, and incubated in a humidity-controlled 5%CO2 incubator at 37°C for 72 hours. Medium were exchanged once every 24 hours. Cell control group and blank group were set up in the same manner, with each group having six parallel wells. Cell survival was assessed by directly adding 22 μL of 5mg/mL MTT to 0.2 mL medium. After three hours, the formazan precipitate was dissolved in 200μL isopropanol per well, and completely mixed under room temperature. Afterwards, the optical density of each well was detected at 570 nm wavelength by iMark microplate reader (Bio-rad,USA). This experiment was repeated at least three times.

[3] = tested on: MDCK cells; test: MTT cell viability assay, MDCK; format: cell-based, Canine; details: Canis lupus familiaris, 72 hours
Description: as §1

[4] = tested on: SGC-7901 cells; test: MTT cell viability assay, SGC-7901; format: cell-based; details: Homo sapiens
Description: as §1

[5] = HepG2, 10μM, listed as EM-d-Rha

Compound: CC(=O)O[C@@H]1[C@@H](O[C@@H]2O[C@@H](C)[C@H](O)[C@@H](OC(C)=O)[C@H]2OC(C)=O)[C@H](C)O[C@@H](Oc2cc(O)c3c(c2)C(=O)c2cc(C)cc(O)c2C3=O)[C@@H]1OC(C)=O [S-8, 3-(2”,3”-Di-O-acetyl-α-L-rhamnopyranosyl-(1→4)-2’,3’-di-O-acetyl-α-L-rhamnopyranosyl)-emodin]
- Early apoptosis ([1]; HepG2, 2.5μM): 40.40±5.70 %
- Late apoptosis ([1]; HepG2, 2.5μM): 7.50±1.04%
- Living cell ([1]; HepG2, 2.5μM): 51.20±5.10 %
- Early apoptosis ([1]; HepG2, 5μM): 45.20±4.17 %
- Late apoptosis ([1]; HepG2, 5μM): 17.53±3.16%
- Living cell ([1]; HepG2, 5μM): 36.40±3.23 %
- Early apoptosis [1, 5]: 78.77% and 78.77±1.22 %
- Late apoptosis ([1]; HepG2, 10μM): 4.22±1.63%
- Living cell [1, 5]: 16.53% and 16.53±0.68 %
- IC50 ([2]; Homo sapiens, MTT at 72h, n=3, mean±S.E.M, read-out: IC50 for EM-d-Rha, A549): 1750 ± 630 nM
- IC50 ([2]; Homo sapiens, MTT, 72 hours, read-out: IC50 values, A549): 2.6 µg/mL
- inhibition at 0.1 µM ([2]; Homo sapiens, A549, 0.1μM, MTT 72h, read-out: The inhibition rate of EM-d-Rha): 13.95 ± 0.02%
- inhibition at 0.5 µM ([2]; Homo sapiens, A549, 0.5μM, MTT 72h, read-out: The inhibition rate of EM-d-Rha): 27.3 ± 2.19%
- inhibition at 2.5 µM ([2]; Homo sapiens, A549, 2.5μM, MTT 72h, read-out: The inhibition rate of EM-d-Rha): 33.7 ± 1.46%
- inhibition at 12.5 µM ([2]; Homo sapiens, A549, 12.5μM, MTT 72h, read-out: The inhibition rate of EM-d-Rha): 63.5 ± 1.03%
- inhibition at 62.5 µM ([2]; Homo sapiens, A549, 62.5μM, MTT 72h, read-out: The inhibition rate of EM-d-Rha): 75.96 ± 0.58%
- Decrease of IC50 compared to the IC50 of emodin, A549 ([2]; from Table 1): 7.52 fold
- IC50 [3]: 18.5 µg/mL (≈ 25.3 µM)
- IC50 ([4]; MTT at 72h, n=3, mean±S.E.M, read-out: IC50 for EM-d-Rha, SGC-7901): 1990 ± 120 nM
- inhibition at 0.1 µM ([4]; SCG-7901, 0.1μM, MTT 72h, read-out: The inhibition rate of EM-d-Rha): 20.1 ± 0.18%
- inhibition at 0.5 µM ([4]; SCG-7901, 0.5μM, MTT 72h, read-out: The inhibition rate of EM-d-Rha): 40.99 ± 0.02%
- inhibition at 2.5 µM ([4]; SCG-7901, 2.5μM, MTT 72h, read-out: The inhibition rate of EM-d-Rha): 42.63 ± 0.02%
- inhibition at 12.5 µM ([4]; SCG-7901, 12.5μM, MTT 72h, read-out: The inhibition rate of EM-d-Rha): 95.01 ± 0.01%
- inhibition at 62.5 µM ([4]; SCG-7901, 62.5μM, MTT 72h, read-out: The inhibition rate of EM-d-Rha): 94.33 ± 0.05%
